Experimental data taken from US7544675B2, “Chemical compounds with dual activity, processes for their preparation and pharmaceutical compositions” (UCB, S.A., priority 2002, dated 2009).

Tests used:
PDE IV = PDE IV enzymatic activity (SPA phosphodiesterase assay, cytosolic fraction from U937 cells); assay type: biochemical; settings: qualitative statement
Method: Cytosolic fraction from U937 cells pre-stimulated for 4 h at 37° C. with a mixture of rolipram 30 μM and salbutamol 1 μM (Torphy T. J., Zhou H. L., Cieslinski L. B., J. Pharmacol. Exp. Ther. (1992), 263 (3), 1195-1205).
Assays were performed in 100 μL of 50 mM Tris HCl buffer (pH 7.4) containing 5 mM MgCl2, 2 mM EGTA, 20 nM of [^3H]-cAMP (40-60 Ci/mmol), the cytosolic fraction of 50,000 U937 cells and the appropriate concentration of test compound (usually 10 μM) dissolved in DMSO (final assay concentration not exceeding 1%). After 30 min incubation at room temperature, 0.5 mg of SPA yttrium silicate beads are added to each sample. Radioactivity bound to the beads (5′-AMP) is determined by liquid scintillation. Non PDE IV activity and/or non specific binding of the labeled substrate to the SPA beads is defined as the residual radioactivity remaining in the presence of rolipram 32 μM (non PDE IV activity represents about 40% of total activity). PDE IV activity is determined by subtracting the non PDE TV activity from the total activity.

[1] = molecular target: T1, human m3 muscarinic receptor (Homo sapiens, UniProt P20309); assay: Affinity for human muscarinic receptors ([3H]-NMS binding, CHO cell membranes); settings: qualitative statement
T1 construct: expressed in transfected cells; host or cells: CHO (Chinese Hamster Ovarian) cells, crude membrane fraction
Method: Chinese Hamster Ovarian cells (CHO) expressing the human recombinant m1, m2, m3, m4 and m5 receptors were cultured in Ham's F12 media supplemented with 100 IU/ml of penicillin, 100 μg/ml of streptomycin, 400 μg/ml of geneticin and 5% of fetal bovine serum. Cell cultures were maintained in a humidified incubator at 37° C. and 5% CO2.
Confluent CHO cells expressing human m1, m2, m3, m4 and m5 muscarinic receptors were harvested and resuspended in phosphate buffered saline without calcium and magnesium. The cell suspension was centrifuged at 1500×g for 3 min (4° C.). The cell pellet was homogenized in a 15 mM Tris-HCl (pH 7.5) buffer containing 2 mM MgCl2, 0.3 mM EDTA and 1 mM EGTA. The crude membrane fraction was collected by two consecutive centrifugation steps at 40,000×g for 25 min (4° C.). The final pellet was resuspended, at a protein concentration ranging from 2 to 6 mg/ml, in a 7.5 mM Tris-HCl (pH 7.5) buffer containing 12.5 mM MgCl2, 0.3 mM EDTA, 1 mM EGTA and 250 mM sucrose and stored in liquid nitrogen.
Binding assays were performed according to procedure described in: Buckley N. J., Bonner T. I., Buckley C. M., Brann M. R., Mol. Pharmacol. (1989), 35, 469-476, but with slight modifications.
Briefly, 25 to 50 μg of membrane proteins were incubated at room temperature in 1 ml of a 50 mM Tris-HCl (pH 7.4) buffer containing 2 mM of MgCl2, 0.1 nM of [^3H]-NMS (N-methylscopolamine, 85 Ci/mmol, from Apbiotech, UK) and increasing concentrations of test compound dissolved in DMSO (1% final concentration). Non specific binding was measured in the presence of 1 μM atropine. After 60 (m2) or 120 (m3) min. incubation, assays were stopped by rapid vacuum filtration of the samples through glass fiber filters (Filtermat A, Wallac, Belgium) presoaked in 0.3% polyethyleneimine for at least 2 h. Samples were further rinsed with 8 ml of ice-cold 50 mM Tris-HCl (pH 7.4) buffer. Radioactivity trapped onto the filter was counted in a Betaplate counter (Wallac). Competition binding curves were analyzed by non-linear regression with XLfit software (UDBS, UK).

T1 sequence (P20309 whole entry): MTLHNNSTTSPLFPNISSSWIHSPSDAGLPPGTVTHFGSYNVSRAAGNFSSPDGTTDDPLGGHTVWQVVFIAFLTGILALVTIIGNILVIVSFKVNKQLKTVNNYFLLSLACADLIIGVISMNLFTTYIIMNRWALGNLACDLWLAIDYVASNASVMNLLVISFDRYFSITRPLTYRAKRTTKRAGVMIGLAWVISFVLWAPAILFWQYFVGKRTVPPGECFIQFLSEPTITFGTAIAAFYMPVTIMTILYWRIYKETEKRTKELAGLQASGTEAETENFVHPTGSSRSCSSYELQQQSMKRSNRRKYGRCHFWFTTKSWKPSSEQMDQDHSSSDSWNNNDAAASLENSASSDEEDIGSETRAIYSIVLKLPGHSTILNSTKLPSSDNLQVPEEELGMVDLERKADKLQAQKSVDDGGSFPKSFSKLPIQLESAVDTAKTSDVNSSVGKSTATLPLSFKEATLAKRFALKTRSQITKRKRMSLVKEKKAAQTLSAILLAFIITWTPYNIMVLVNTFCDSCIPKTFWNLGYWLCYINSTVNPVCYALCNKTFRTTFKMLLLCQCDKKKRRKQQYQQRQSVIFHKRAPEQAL

| Dual high affinities: m3 receptor part [1] | Structure (SMILES) | Dual high affinities: PDE IV part (PDE IV) |
| --- | --- | --- |
| high affinities | Cc1c(NC2CC2)nc(C2CC2)nc1N1CCCCC1 [Compound 175, N,2-dicyclopropyl-5-methyl-6-(1-piperidinyl)-4-pyrimidinamine] | high affinities |
| high affinities | Cc1c(N2CCCCCC2)nc(C2CC2)nc1N1CC(C)C1 [Compound 185, 1-[2-cyclopropyl-5-methyl-6-(3-methylazetidin-1-yl)pyrimidin-4-yl]azepane] | high affinities |
| high affinities | Cc1c(NC2CC2)nc(C2CC2)nc1N1CCCCCC1 [Compound 56, 6-(1-azepanyl)-N,2-dicyclopropyl-5-methyl-4-pyrimidinamine] | high affinities |
| high affinities | c1c(NC2CC2)nc(C2CC2)nc1N1CCCCCC1 [Compound 62, 6-(1-azepanyl)-N,2-dicyclopropyl-4-pyrimidinamine] | high affinities |
| high affinities | Fc1c(NC2CC2)nc(C2CC2)nc1N1CCCCCC1 [Compound 60, 6-(1-azepanyl)-N,2-dicyclopropyl-5-fluoro-4-pyrimidinamine] | high affinities |
| high affinities | Cc1c(NC2CC2)nc(C2CC2)nc1N1CCC(C)CC1 [Compound 95, N,2-dicyclopropyl-5-methyl-6-(4-methyl-1-piperidinyl)-4-pyrimidinamine] | high affinities |
| high affinities | Cc1c(NCc2c(F)cccc2F)nc(C2CC2)nc1NC1CC1 [Compound 132, N^4,2-dicyclopropyl-N^6-(2,6-difluorobenzyl)-5-methyl-4,6-pyrimidinediamine] | high affinities |
| high affinities | Cc1c(N2CCCCCC2)nc(C2CC2)nc1N1CC(O)C1 [Compound 189, 1-(6-azepan-1-yl-2-cyclopropyl-5-methylpyrimidin-4-yl)azetidin-3-ol] | high affinities |
| high affinities | Cc1c(NC2CC2)nc(C2CC2)nc1N1CCC(C)(C)CC1 [Compound 79, N,2-dicyclopropyl-6-(4,4-dimethyl-1-piperidinyl)-5-methyl-4-pyrimidinamine] | high affinities |
| high affinities | Cc1c(N2CCCCCC2)nc(C2CC2)nc1N1CC(F)C1 [Compound 194, 1-[2-cyclopropyl-6-(3-fluoroazetidin-1-yl)-5-methylpyrimidin-4-yl]azepane] | high affinities |
| high affinities | c1c(N2CCCCCC2)nc(C2CC2)nc1N1CCC1 [Compound 192, 1-(6-azetidin-1-yl-2-cyclopropylpyrimidin-4-yl)azepane] | high affinities |
| high affinities | C1CCCN(c2nc(C3CC3)nc3c2CCCN3)CC1 [Compound 155, 4-azepan-1-yl-2-cyclopropyl-5,6,7,8-tetrahydro-pyrido[2,3-d]pyrimidine] | high affinities |
| high affinities | Cc1c(NC2CC2)nc(C2CC2)nc1N1CCCCC1C (racemic) [Compound 177, N,2-dicyclopropyl-5-methyl-6-(2-methyl-1-piperidinyl)-4-pyrimidinamine] | high affinities |
| high affinities | CC1CN(c2cc(N3CCCCCC3)nc(C3CC3)n2)C1 [Compound 191, 1-[2-cyclopropyl-6-(3-methylazetidin-1-yl)pyrimidin-4-yl]azepane] | high affinities |

Further lines, the compound ahead of its results:

| Structure (SMILES) | Dual high affinities: m3 receptor part [1] | Dual high affinities: PDE IV part (PDE IV) |
| --- | --- | --- |
| Cc1c(NC2CC2)nc(C2CC2C)nc1N1CCCCCC1 (racemic) [Compound 65, 6-(1-azepanyl)-N-cyclopropyl-5-methyl-2-(2-methylcyclopropyl)-4-pyrimidinamine] | high affinities | high affinities |
| CCC1CCN(c2nc(C3CC3)nc(NC3CC3)c2C)CC1 [Compound 86, N,2-dicyclopropyl-6-(4-ethyl-1-piperidinyl)-5-methyl-4-pyrimidinamine] | high affinities | high affinities |
| Cc1c(NC2CC2)nc(C2CC2)nc1N1CCC(C(F)(F)F)CC1 [Compound 77, N,2-dicyclopropyl-5-methyl-6-[4-(trifluoromethyl)piperidin-1-yl]-4-pyrimidinamine] | high affinities | high affinities |
| CC1CC1c1nc(NC2CCCCC2)cc(NC2CC2)n1 (single isomer, unassigned) [Compound 144, N^4-cyclohexyl-N^6-cyclopropyl-2-(2-methylcyclopropyl)-4,6-pyrimidinediamine] | high affinities | high affinities |
| Cc1c(NC2CC2)nc(C(C)C)nc1N1CCCCCC1 [Compound 64, 6-(1-azepanyl)-N-cyclopropyl-2-isopropyl-5-methyl-4-pyrimidinamine] | high affinities | high affinities |
| Cc1c(NC2CC2)nc(C2CC2)nc1N1CC=CCC1 [Compound 112, N,2-dicyclopropyl-6-(3,6-dihydro-1(2H)-pyridinyl)-5-methyl-4-pyrimidinamine] | high affinities | high affinities |
| Cc1c(NC2CC2)nc(C2CCCC2)nc1N1CCCCCC1 [Compound 154, 6-(1-azepanyl)-2-cyclopentyl-N-cyclopropyl-5-methyl-4-pyrimidinamine] | high affinities | high affinities |
| Cc1c(NC2CC2)nc(C2CC2)nc1N1CC2CCC(CC2)C1 [Compound 176, 6-(3-azabicyclo[3.2.2]non-3-yl)-N,2-dicyclopropyl-5-methyl-4-pyrimidinamine] | high affinities | high affinities |
| Cc1c(NC2CC2)nc(C2CC2C)nc1N1CCC(C)CC1 (racemic) [Compound 98, N-cyclopropyl-5-methyl-2-(2-methylcyclopropyl)-6-(4-methyl-1-piperidinyl)-4-pyrimidinamine] | high affinities | high affinities |
| Cc1c(NC2CC2)nc(C2CCC2)nc1N1CCCCCC1 [Compound 55, 6-(1-azepanyl)-2-cyclobutyl-N-cyclopropyl-5-methyl-4-pyrimidinamine] | high affinities | high affinities |
| C1CCCN(c2nc(C3CC3)nc3c2CCCCN3)CC1 [Compound 156, 4-azepan-1-yl-2-cyclopropyl-6,7,8,9-tetrahydro-pyrimido[4,5-b]azepine] | high affinities | high affinities |
| CCc1c(NC2CC2)nc(C2CC2)nc1N1CCSCC1 [Compound 118, N,2-dicyclopropyl-5-ethyl-6-(4-thiomorpholinyl)-4-pyrimidinamine (1:1)] | high affinities | high affinities |
| Cc1c(NC2CC2)nc(C2CC2)nc1N1CC2CCC(C2)C1 [Compound 115, 6-(3-azabicyclo[3.2.1]oct-3-yl)-N,2-dicyclopropyl-5-methyl-4-pyrimidinamine] | high affinities | high affinities |
